Data reported in patent publication US9919941B2, “Multiple uses of amine salts for industrial water treatment” (AMSA, Inc., priority 2012, dated 2018).
Like-named read-outs stand apart in the source and are kept apart here.

Tested on: sessile microbial population (biofilm on stainless steel washers)
Test: time-kill biocidal efficacy, hybrid planktonic-sessile procedure: sessile population
Format: cell-based, natural mixed aerobic microbial population
Conditions: 10 ppm Compound B, others equimolar; for Sessile, 20-24 h, % of Control / Sessile, 48-54 h, % of Control / Sessile, 120 h, % of Control / Sessile CFU/, 20-24 h / Sessile CFU/, 48-54 h / Sessile CFU/, 120 h / Sessile CFU/, Total / Sessile, Total, % of Control / activity at 10 ppm: exposure 110 minutes; for Sessile CFU/, 20-24 h / Sessile CFU/, 48-54 h / Sessile CFU/, 120 h / Sessile CFU/, Total: per washer; for reduction in the total sessile population: 110 minutes
Procedure: An experiment was conducted to assess biocidal effectiveness of Compounds A and B and their respective Compounds 13 and 1 anion analogs. Time-kill tests were conducted using a hybrid planktonic-sessile procedure which allowed assessment of biocidal effectiveness against both planktonic and sessile microbial populations. A natural mixed aerobic microbial population in samples collected from an operating cooling tower was used as inoculum for the test. Biocide test concentration for Compound B was 10 ppm. All other products were tested at the equivalent molar concentration. Biocide exposure was 110 minutes. The following procedure was used which generally followed the biocidal testing method of Walter, R. W. and Cooke, L. […] A New Multifunctional Biocide Which Enhances Corrosion Inhibition,” NACE Paper 410, 1997. A water sample was collected from a cooling tower that contained a natural mixed population of microorganisms that grew at different rates when plated on Petrifilm. The populations of cells that grew on Petrifilm in 20-24 hours, 48-54 hours and at 120 hours were treated as separate populations. […] The washers were allowed seven days to develop a biofilm on their surface. Prior to chemical treatment, 10 mL aliquots of the CTW were removed from the beaker and placed into individual exposure test tubes along with a single washer. Test compounds were then added to the individual tubes at equimolar concentrations. All exposure tests including untreated controls were conducted in triplicate (i.e., three washers in separate exposure tubes). After addition of the test compound, the tube was briefly mixed by mild vortexing and again occasionally throughout the exposure time. Washer sonication to release organisms not released by the chemical treatment: […], the washer was removed from the tube, dipped 10 times in Letheen broth, then placed into a 9 mL tube of sterile Butterfields buffer, and sonicated for 8 minutes. Determination of cell population removed from washers by sonication: After the tube with washer was sonicated, a 1 mL aliquot was plated onto petrifilm and a serial dilution in Butterfields Buffer was performed with each dilution being plated to petrifilm. Determination of colony forming units (CFU) at different incubation times: After plating the various solutions on Petrifilm, the films were incubated at 36° C. for the first 24 hours. At 20 hours the […] read and CFU were recorded. This population was defined as a fast growing population. The […] then incubated for additional time either at 36° C. or room temperature and read at 54 hours. This second population is in addition to the fast growth rate population and was defined as moderate growth rate organisms. Incubation was continued and the […] again after 120 hours. This third population was also treated as separate from the fast and moderate growth rate populations and is referred to as the slow growth rate population. As noted above, each compound was evaluated in triplicate with three separate washers and the results were averaged. Average CFU/mL values were used to calculate total planktonic test population (CFU/10 mL) and total sessile test population (CFU/washer) in each test system.

Row | SMILES | Sessile, 20-24 h, % of Control (20-24 h incubation) | Sessile, 48-54 h, % of Control (48-54 h incubation) | Sessile, 120 h, % of Control (120 h incubation) | Sessile CFU/, 20-24 h (20-24 h incubation) | Sessile CFU/, 48-54 h (48-54 h incubation) | Sessile CFU/, 120 h (120 h incubation) | Sessile CFU/, Total (total population) | Sessile, Total, % of Control (total population) | reduction in the total sessile population | activity at 10 ppm (20-24 h incubation, read-out: Sessile, 20-24 h, % of Control) | activity at 10 ppm (48-54 h incubation, read-out: Sessile, 48-54 h, % of Control) | activity at 10 ppm (110 min, total population, read-out: Sessile, Total, % of Control) | activity at 10 ppm (120 h incubation, read-out: Sessile, 120 h, % of Control)
1 | CCCCCCCCCCOCCCN.O=C(O)CC(O)(CC(=O)O)C(=O)O [Compound 1, 2-hydroxypropane-1,2,3-tricarboxylic acid salt of aminopropyloxydecane] | 104.9% | 4.4% | 38.7% | 234 CFU/ | 36,000 CFU/ | 265,000 CFU/ | 301,000 CFU/ | 19.9% |  |  |  |  | 
2 | CCCCCCCCCCSCCN.Cl [Compound A, 2-(decylthio)ethanamine hydrochloride] |  |  |  | 405 CFU/ | 360 CFU/ | 60,000 CFU/ | 60,800 CFU/ |  | 96% | 182% | 0.04% | 4% | 8.8%
3 | CC(=O)O.CCCCCCCCCCOCCCN [Compound B, ethanoic acid salt of aminopropyloxydecane] | 92.8% | 6.0% | 37.7% | 207 CFU/ | 49,200 CFU/ | 258,000 CFU/ | 307,000 CFU/ | 20.3% | 80% |  |  |  | 
